In the supplement of paper PMC4862054:

What was measured:
Test in all cases: normalised response (% of control), CellTiter-Glo; higher = more viable cells (100 = DMSO, 0 = benzethonium chloride kill control)
Conditions in all cases: incubation time: 72 h
[1] = tested on: MDA-MB-468
Outline: (§1)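 Each entry is the normalised signal at a single concentration within a series. The series comprised 5 concentrations in 10-fold steps over a compound-specific 10,000-fold range, placed in 384-well plates into which breast cancer cell lines were seeded as 20 µl suspension and incubated 72 h. CellTox Green (485/520 nm) fluorescence and then CellTiter-Glo luminescence were read, with signals normalised per plate to 0.1 % DMSO (100) and a positive kill control (0).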

[2] = tested on: Hs578T
Outline: as §1

[3] = tested on: MCF-10A
Outline: as §1

[4] = tested on: HCC1937
Outline: as §1

[5] = tested on: CAL-51
Outline: as §1

[6] = tested on: CAL-148
Outline: as §1

[7] = tested on: BT-549
Outline: as §1

[8] = tested on: BT-474
Outline: as §1

[9] = tested on: MDA-MB-231
Outline: as §1

[10] = tested on: MFM-223
Outline: as §1

[11] = tested on: HDQ-P1
Outline: as §1

[12] = tested on: DU-4475
Outline: as §1

[13] = tested on: CAL-120
Outline: as §1

[14] = tested on: MDA-MB-436
Outline: as §1

[15] = tested on: HCC1599
Outline: as §1

[16] = tested on: MDA-MB-453
Outline: as §1

[17] = tested on: HCC1143
Outline: as §1

[18] = tested on: CAL-85-1
Outline: as §1

[19] = tested on: SK-BR-3
Outline: as §1

| Structure (SMILES) | normalised response [1] [%] | normalised response [2] [%] | normalised response [3] [%] | normalised response [4] [%] | normalised response [5] [%] | normalised response [6] [%] | normalised response [7] [%] | normalised response [8] [%] | normalised response [9] [%] | normalised response [10] [%] | normalised response [11] [%] | normalised response [12] [%] | normalised response [13] [%] | normalised response [14] [%] | normalised response [15] [%] | normalised response [16] [%] | normalised response [17] [%] | normalised response [18] [%] | normalised response [19] [%] |
| --- | --- | --- | --- | --- | --- | --- | --- | --- | --- | --- | --- | --- | --- | --- | --- | --- | --- | --- | --- |
| COc1cc2c(Oc3ccc4[nH]c(C)cc4c3F)ncnc2cc1OCCCN1CCCC1 [Cediranib] (0.1 nM) | 110 | 94.8 | 100 | 104 | 113 | 109 | 101 | 113 | 109 | 103 | 103 | 99.9 | 101 | 93.3 | 93.4 | 107 | 98.1 | 101 | 106 |
| COc1cc2c(Oc3ccc4[nH]c(C)cc4c3F)ncnc2cc1OCCCN1CCCC1 [Cediranib] (1 nM) | 113 | 97 | 104 | 94.7 | 131 | 106 | 101 | 104 | 101 | 108 | 98.6 | 102 | 105 | 97.8 | 93.9 | 99.7 | 106 | 109 | 99.8 |
| Cc1ccc(-c2cc(C(F)(F)F)nn2-c2ccc(S(N)(=O)=O)cc2)cc1 [Celecoxib] (10 nM) | 100 | 107 | 105 | 98.3 | 106 | 102 | 102 | 27.3 | 100 | 102 | 98.1 | 101 | 101 | 105 | 105 | 115 | 104 | 103 |  |
| Nc1ncn([C@H]2C[C@H](O)[C@@H](CO)O2)c(=O)n1 [Decitabine] (10 nM) | 96 | 96.3 | 98.5 | 94.6 | 124 | 95.4 | 93 | 104 | 102 | 103 | 98.8 | 105 | 103 | 97.3 | 102 | 97.7 | 103 | 90 |  |
| Nc1ccccc1NC(=O)c1ccc(CNC(=O)OCc2cccnc2)cc1 [Entinostat] (10 nM) | 98.4 | 102 | 109 | 99.5 | 94 | 104 | 96.8 | 100 | 98.6 | 103 | 97.5 | 101 | 94.2 | 102 | 95.7 | 94.6 | 101 | 107 |  |
| Nc1nc(F)nc2c1ncn2[C@@H]1O[C@H](CO)[C@@H](O)[C@@H]1O [Fludarabine] (10 nM) | 105 | 105 | 116 | 107 | 120 | 108 | 101 | 108 | 109 | 110 | 97 | 107 | 101 | 109 | 98.5 | 103 | 108 | 98.8 |  |
| N#Cc1ccc(C(c2ccc(C#N)cc2)n2cncn2)cc1 [Letrozole] (10 nM) | 99.6 | 103 | 108 | 97.6 | 126 | 99.3 | 95.3 | 103 | 101 | 103 | 97.8 | 98.2 | 95.7 | 97.1 | 98.2 | 102 | 97.4 | 99.9 |  |
| Cc1cnc(NC(=O)Nc2cc(Br)c(C)cc2OC[C@@H]2CNCCO2)cn1 [Rabusertib] (1 nM) | 94.9 | 102 | 105 | 106 | 115 | 118 | 94.6 | 103 | 107 | 113 | 90.4 | 108 | 98.1 | 104 | 101 | 109 | 104 | 103 |  |
| COc1cc([C@@H]2c3cc4c(cc3[C@@H](O[C@@H]3O[C@@H]5CO[C@@H](c6cccs6)O[C@H]5[C@H](O)[C@H]3O)[C@H]3COC(=O)[C@H]23)OCO4)cc(OC)c1O [Teniposide] (10 nM) | 98.3 | 100 | 98.8 | 101 | 112 | 93.2 | 91.9 | 96.8 | 99.4 | 98 | 95.3 | 78.2 | 105 | 89.7 | 103 | 101 | 96.9 | 100 |  |
| Oc1ncc(N(CCCl)CCCl)c(O)n1 [Uracil mustard] (10 nM) | 90.3 | 107 | 106 | 99.7 | 80.1 | 107 | 97.2 | 103 | 105 | 103 | 95.1 | 97.7 | 102 | 105 | 87 | 88.8 | 105 | 95.2 |  |
| CCCCC(=O)OCC(=O)[C@]1(O)Cc2c(O)c3c(c(O)c2[C@@H](O[C@H]2C[C@H](NC(=O)C(F)(F)F)[C@H](O)[C@H](C)O2)C1)C(=O)c1c(OC)cccc1C3=O [Valrubicin] (5 nM) | 93.1 | 102 | 106 | 102 | 60.1 | 105 | 91.1 | 97.6 | 97 | 105 | 95.5 | 101 | 94.6 | 101 | 96.5 | 103 | 102 | 95.6 |  |
